According to PubChem BioAssay AID248 (DTP/NCI, 2004):
Where “and” joins values, the source holds several entries; their conditions need not be identical. Equal values may be shown once. Inconclusive results and toxic doses are left out. Rule as the data show it: active = T/C of 150% or more; inactive = T/C below 125%.

Tested on: L1210 leukemia ip in BDF1 mice, survival T/C
Test: NCI In Vivo Anticancer Drug Screen. Data for tumor model L1210 Leukemia (intraperitoneal) in B6D2F1 (BDF1) mice
Details: endpoint: mean survival time, higher = longer survival
Procedure, shortened: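 Tumor cells were implanted, animals were treated, and survival was followed. The result divides the treated measurement by the vehicle-control measurement.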

[1] = dose: 100.0 mg/kg/injection, schedule: Q01DX009 (ip), vehicle: Klucel (hydroxypropylcellulose) (HPC)
[2] = dose: 100.0 mg/kg/injection, schedule: Q04DX003 (ip), vehicle: Klucel (hydroxypropylcellulose) (HPC)
[3] = dose: 200.0 mg/kg/injection, schedule: Q01DX009 (ip), vehicle: Klucel (hydroxypropylcellulose) (HPC)
[4] = dose: 200.0 mg/kg/injection, schedule: Q04DX003 (ip), vehicle: Klucel (hydroxypropylcellulose) (HPC)
[5] = dose: 400.0 mg/kg/injection, schedule: Q01DX009 (ip), vehicle: Klucel (hydroxypropylcellulose) (HPC)
[6] = dose: 400.0 mg/kg/injection, schedule: Q04DX003 (ip), vehicle: Klucel (hydroxypropylcellulose) (HPC)
[7] = dose: 100.0 mg/kg/injection, schedule: Q01DX009 (ip), vehicle: saline with Tween-80
[8] = dose: 200.0 mg/kg/injection, schedule: Q04DX003 (ip), vehicle: saline with Tween-80
[9] = dose: 400.0 mg/kg/injection, schedule: Q04DX003 (ip), vehicle: saline with Tween-80
[10] = dose: 100.0 mg/kg/injection, schedule: Q01DX001 (ip), vehicle: saline
[11] = dose: 200.0 mg/kg/injection, schedule: Q01DX001 (ip), vehicle: saline
[12] = dose: 400.0 mg/kg/injection, schedule: Q01DX001 (ip), vehicle: saline
[13] = dose: 25.0 mg/kg/injection, schedule: Q01DX009 (ip), vehicle: saline with Tween-80
[14] = dose: 25.0 mg/kg/injection, schedule: Q04DX003 (ip), vehicle: saline with Tween-80
[15] = dose: 50.0 mg/kg/injection, schedule: Q04DX003 (ip), vehicle: saline with Tween-80
[16] = dose: 100.0 mg/kg/injection, schedule: Q04DX003 (ip), vehicle: saline with Tween-80

Measured: T/C

Nc1ncnc(N)c1N(C=O)Cc1ccccc1
inactive: dose: 100.0 mg/kg/injection, schedule: Q01DX001 (ip), vehicle: acetone 96 % of control | dose: 200.0 mg/kg/injection, schedule: Q01DX001 (ip), vehicle: acetone 94 % of control | dose: 400.0 mg/kg/injection, schedule: Q01DX001 (ip), vehicle: acetone 91 % of control

O=C(Nc1cccc(F)c1)OCc1ccco1
inactive: dose: 100.0 mg/kg/injection, schedule: Q01DX009 (sc), vehicle: olive oil, sesame oil, peanut oil 95 % of control | dose: 200.0 mg/kg/injection, schedule: Q01DX009 (sc), vehicle: olive oil, sesame oil, peanut oil 96 % of control | dose: 400.0 mg/kg/injection, schedule: Q01DX009 (sc), vehicle: olive oil, sesame oil, peanut oil 95 % of control

O=C(c1ccc(Cl)cc1)C1Cc2ccccc2C1=O (configuration not stated)
inactive: [1] 97 % of control | [2] 101 % of control | [3] 94 % of control | [4] 101 % of control | [5] 91 % of control | [6] 97 % of control

Cc1ccccc1C1(c2ccccc2C)OC(=O)c2ccccc21
inactive: [7] 93 % of control | dose: 200.0 mg/kg/injection, schedule: Q01DX009 (ip), vehicle: saline with Tween-80 89 % of control | dose: 400.0 mg/kg/injection, schedule: Q01DX009 (ip), vehicle: saline with Tween-80 90 % of control

COC/C(C)=C/Br
inactive: dose: 100.0 mg/kg/injection, schedule: Q01DX009 (ip), vehicle: acetone 97 % of control | dose: 200.0 mg/kg/injection, schedule: Q01DX009 (ip), vehicle: acetone 94 % of control | dose: 400.0 mg/kg/injection, schedule: Q01DX009 (ip), vehicle: acetone 94 % of control

Cc1cccc(NC(=O)N(C)N)c1
inactive: dose: 75.0 mg/kg/injection, schedule: Q01DX001 (ip), vehicle: carboxymethylcellulose (CMC) 96 % of control | dose: 150.0 mg/kg/injection, schedule: Q01DX001 (ip), vehicle: carboxymethylcellulose (CMC) 104 % of control

Cc1cc(C)c(CCc2c(C)cc(C)cc2C)c(C)c1
inactive: [8] 104 % of control | [9] 102 % of control

CCCCCCCCCCCCCCCC(=O)Nc1ccc(O)cc1
inactive: [10] 110 % of control | [2] 97 % of control | [11] 110 % of control | [4] 102 % of control | [12] 108 % of control | [6] 95 % of control

CCOC(=O)c1cc2ccccc2oc1=O
inactive: [13] 102 % of control | [14] 103 % of control | dose: 50.0 mg/kg/injection, schedule: Q01DX001 (ip), vehicle: other 95 % of control | dose: 50.0 mg/kg/injection, schedule: Q01DX009 (ip), vehicle: saline with Tween-80 98 % of control | [15] 98 % of control and 89 % of control | [7] 94 % of control | [16] 100 % of control and 103 % of control

S=C=NCc1cccc2ccccc12
inactive: dose: 2.5 mg/kg/injection, schedule: Q01DX009 (ip), vehicle: carboxymethylcellulose (CMC) 90 % of control | dose: 5.0 mg/kg/injection, schedule: Q01DX009 (ip), vehicle: carboxymethylcellulose (CMC) 94 % of control | dose: 5.0 mg/kg/injection, schedule: Q04DX003 (ip), vehicle: carboxymethylcellulose (CMC) 101 % of control | dose: 10.0 mg/kg/injection, schedule: Q01DX001 (ip), vehicle: carboxymethylcellulose (CMC) 93 % of control | dose: 10.0 mg/kg/injection, schedule: Q01DX009 (ip), vehicle: carboxymethylcellulose (CMC) 105 % of control | dose: 10.0 mg/kg/injection, schedule: Q04DX003 (ip), vehicle: carboxymethylcellulose (CMC) 97 % of control | dose: 20.0 mg/kg/injection, schedule: Q01DX001 (ip), vehicle: carboxymethylcellulose (CMC) 87 % of control | dose: 20.0 mg/kg/injection, schedule: Q04DX003 (ip), vehicle: carboxymethylcellulose (CMC) 97 % of control

COc1cccc(/C=C(\S)C(=O)O)c1O
inactive: dose: 100.0 mg/kg/injection, schedule: Q01DX001 (ip), vehicle: carboxymethylcellulose (CMC) 86 % of control | dose: 200.0 mg/kg/injection, schedule: Q01DX001 (ip), vehicle: carboxymethylcellulose (CMC) 89 % of control | dose: 400.0 mg/kg/injection, schedule: Q01DX001 (ip), vehicle: carboxymethylcellulose (CMC) 89 % of control

CC1(C)CN(Cc2ccccc2)C(C)(C)CN1N
inactive: dose: 6.25 mg/kg/injection, schedule: Q01DX009 (ip), vehicle: saline with Tween-80 96 % of control | dose: 12.5 mg/kg/injection, schedule: Q01DX009 (ip), vehicle: saline with Tween-80 100 % of control | [13] 102 % of control | [14] 105 % of control | [15] 102 % of control | [16] 113 % of control

COc1cc(C=Nc2ccc(-c3csc(COc4ccccc4)n3)c(Cl)c2)ccc1N(CCCl)CCCl
inactive: dose: 5.0 mg/kg/injection, schedule: Q01DX015 (ip), vehicle: carboxymethylcellulose (CMC) 111 % of control | dose: 10.0 mg/kg/injection, schedule: Q01DX015 (ip), vehicle: carboxymethylcellulose (CMC) 113 % of control | dose: 20.0 mg/kg/injection, schedule: Q01DX015 (ip), vehicle: carboxymethylcellulose (CMC) 104 % of control | dose: 44.0 mg/kg/injection, schedule: Q01DX015 (ip), vehicle: carboxymethylcellulose (CMC) 97 % of control | dose: 200.0 mg/kg/injection, schedule: Q01DX001 (sc), vehicle: carboxymethylcellulose (CMC) 118 % of control

c1ccc2c(c1)NC1CCN2C1 (configuration not stated)
inactive: [16] 109 % of control | [8] 103 % of control | [9] 97 % of control

Oc1ccc2c(c1)CCCC2
inactive: dose: 75.0 mg/kg/injection, schedule: Q04DX003 (ip), vehicle: saline 102 % of control

O=C(Nc1ccc(C(=O)c2ccccc2)cc1)c1ccc(C(=O)Nc2ccc(C(=O)c3ccccc3)cc2)cc1
inactive: dose: 100.0 mg/kg/injection, schedule: Q01DX001 (ip), vehicle: other 93 % of control | dose: 200.0 mg/kg/injection, schedule: Q01DX001 (ip), vehicle: other 86 % of control | dose: 400.0 mg/kg/injection, schedule: Q01DX001 (ip), vehicle: other 89 % of control

COn1c(=O)c2ccccc2n(C)c1=O
inactive: dose: 62.5 mg/kg/injection, schedule: Q01DX009 (ip), vehicle: other 96 % of control | dose: 125.0 mg/kg/injection, schedule: Q01DX009 (ip), vehicle: other 94 % of control | dose: 250.0 mg/kg/injection, schedule: Q01DX009 (ip), vehicle: other 98 % of control

O=C(O)C1C2CCC(C2)C1C(=O)O (configuration not stated)
inactive: [16] 90 % of control | dose: 100.0 mg/kg/injection, schedule: Q04DX003 (ip), vehicle: saline 100 % of control | [8] 98 % of control | dose: 200.0 mg/kg/injection, schedule: Q04DX003 (ip), vehicle: saline 100 % of control | [9] 102 % of control | dose: 400.0 mg/kg/injection, schedule: Q04DX003 (ip), vehicle: saline 105 % of control

Cc1cc(NC(=O)Nc2cccc3ccccc23)no1
inactive: [1] 104 % of control | dose: 100.0 mg/kg/injection, schedule: Q04DX002 (ip), vehicle: Klucel (hydroxypropylcellulose) (HPC) 89 % of control | [3] 98 % of control | dose: 200.0 mg/kg/injection, schedule: Q04DX002 (ip), vehicle: Klucel (hydroxypropylcellulose) (HPC) 102 % of control | [5] 98 % of control | dose: 400.0 mg/kg/injection, schedule: Q04DX002 (ip), vehicle: Klucel (hydroxypropylcellulose) (HPC) 89 % of control

O=C(Nc1ccc(NS(=O)(=O)c2ccccc2)cc1Cl)c1ccccc1
inactive: dose: 50.0 mg/kg/injection, schedule: Q01DX001 (ip), vehicle: Klucel (hydroxypropylcellulose) (HPC) 104 % of control | dose: 100.0 mg/kg/injection, schedule: Q01DX001 (ip), vehicle: Klucel (hydroxypropylcellulose) (HPC) 108 % of control | dose: 200.0 mg/kg/injection, schedule: Q01DX001 (ip), vehicle: Klucel (hydroxypropylcellulose) (HPC) 90 % of control

CC1(C(=O)O)CCCC1C(CCC(=O)O)C(=O)O (configuration not stated)
inactive: [10] 97 % of control | [11] 95 % of control | [12] 92 % of control

Nc1cccc(OCCCCCOc2cccc(N)c2)c1
inactive: [1] 93 % of control | [3] 96 % of control
